Molecules are shown by their SMILES. pIC50: −log10 of the molar value. Where a name gives a salt, the structure may show the parent alone.

T1 sequence (Q15858 whole entry): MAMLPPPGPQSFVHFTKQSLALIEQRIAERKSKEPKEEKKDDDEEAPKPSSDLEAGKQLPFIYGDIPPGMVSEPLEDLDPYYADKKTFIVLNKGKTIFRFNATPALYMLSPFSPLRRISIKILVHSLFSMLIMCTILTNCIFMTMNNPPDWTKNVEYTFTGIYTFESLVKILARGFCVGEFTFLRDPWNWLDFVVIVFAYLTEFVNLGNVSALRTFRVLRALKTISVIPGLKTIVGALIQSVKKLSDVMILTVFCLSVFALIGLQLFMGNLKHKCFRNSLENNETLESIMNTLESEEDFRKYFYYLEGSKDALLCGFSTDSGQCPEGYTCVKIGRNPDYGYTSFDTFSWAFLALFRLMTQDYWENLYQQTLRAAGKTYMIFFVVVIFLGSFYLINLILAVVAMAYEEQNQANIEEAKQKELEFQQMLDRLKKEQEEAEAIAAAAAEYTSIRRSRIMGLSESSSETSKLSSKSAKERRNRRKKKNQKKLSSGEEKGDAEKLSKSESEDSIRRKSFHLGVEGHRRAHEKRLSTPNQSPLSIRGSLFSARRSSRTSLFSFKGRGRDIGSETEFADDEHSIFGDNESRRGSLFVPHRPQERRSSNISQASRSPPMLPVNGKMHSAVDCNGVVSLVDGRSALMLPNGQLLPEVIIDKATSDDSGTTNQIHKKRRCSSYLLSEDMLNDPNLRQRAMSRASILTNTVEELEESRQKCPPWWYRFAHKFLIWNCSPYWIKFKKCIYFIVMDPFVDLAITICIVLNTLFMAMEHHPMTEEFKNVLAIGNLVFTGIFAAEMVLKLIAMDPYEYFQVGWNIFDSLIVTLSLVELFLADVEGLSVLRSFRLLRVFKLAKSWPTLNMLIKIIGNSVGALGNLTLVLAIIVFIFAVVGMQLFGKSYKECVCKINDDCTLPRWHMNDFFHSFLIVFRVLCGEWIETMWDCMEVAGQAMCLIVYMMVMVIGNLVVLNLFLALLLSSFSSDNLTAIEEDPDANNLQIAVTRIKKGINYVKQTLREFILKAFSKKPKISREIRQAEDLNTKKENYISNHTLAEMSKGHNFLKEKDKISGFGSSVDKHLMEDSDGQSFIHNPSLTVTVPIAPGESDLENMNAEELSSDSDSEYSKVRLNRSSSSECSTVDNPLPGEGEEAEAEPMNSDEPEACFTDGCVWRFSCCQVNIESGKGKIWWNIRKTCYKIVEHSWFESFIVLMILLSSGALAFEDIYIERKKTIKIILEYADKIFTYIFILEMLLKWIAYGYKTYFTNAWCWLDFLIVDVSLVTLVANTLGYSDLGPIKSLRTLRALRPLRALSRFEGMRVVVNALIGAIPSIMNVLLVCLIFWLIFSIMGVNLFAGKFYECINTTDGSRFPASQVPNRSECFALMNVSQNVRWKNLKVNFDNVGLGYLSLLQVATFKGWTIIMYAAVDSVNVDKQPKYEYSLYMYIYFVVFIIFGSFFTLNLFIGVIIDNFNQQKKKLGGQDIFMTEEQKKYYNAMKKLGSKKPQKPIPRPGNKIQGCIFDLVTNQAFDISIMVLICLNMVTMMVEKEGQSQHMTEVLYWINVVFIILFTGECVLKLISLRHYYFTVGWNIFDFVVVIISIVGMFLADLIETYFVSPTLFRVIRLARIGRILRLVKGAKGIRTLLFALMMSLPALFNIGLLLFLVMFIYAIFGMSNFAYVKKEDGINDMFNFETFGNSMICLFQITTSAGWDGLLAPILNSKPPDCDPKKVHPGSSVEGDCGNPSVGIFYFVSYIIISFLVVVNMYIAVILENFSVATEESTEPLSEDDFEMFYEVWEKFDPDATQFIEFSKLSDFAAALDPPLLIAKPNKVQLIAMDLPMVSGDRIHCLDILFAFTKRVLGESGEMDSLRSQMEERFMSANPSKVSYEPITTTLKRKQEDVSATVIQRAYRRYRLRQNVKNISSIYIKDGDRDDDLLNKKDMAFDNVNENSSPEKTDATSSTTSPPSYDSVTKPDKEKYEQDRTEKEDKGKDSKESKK

This test addresses T1, Nav1.7 (or SCN9A) channel (Homo sapiens, UniProt Q15858).
T1 construct: expressed in transfected cells; host or cells: HEK cells, stably transfected, G-418 selected
Briefly: Nav1.7 (hSCN9A) whole-cell electrophysiology, PatchXpress platform. The format is cell-based. As to conditions: HEK cells stably expressing hSCN9A, held at V1/2 of inactivation, calculated from single point % inhibition, read-out: Nav1.7 EIC50 (estimated IC-50). As to the method: The ability of the compounds of list (I) to block the Nav1.7 (or SCN9A) channel was measured using the assay described below.
Human Embryonic Kidney (HEK) cells were transfected with an hSCN9A construct using lipofectamine reagent (Invitrogen), using standard techniques. Cells stably expressing the hSCN9A constructs were identified by their resistance to G-418 (400 μg/ml). Clones were screened for expression using the whole-cell voltage-clamp technique.
HEK cells stably transfected with hSCN9A were maintained in DMEM medium supplemented with 10% heat-inactivated fetal bovine serum and 400 μg/ml G-418 in an incubator at 37° C. with a humidified atmosphere of 10% CO2. For HTS, cells were harvested from flasks by trypsinization and replated in an appropriate multi-well plate (typically 96 or 384 wells/plate) such that confluence would be achieved within 24 hours of plating. For electrophysiological studies, cells were removed from the culture flask by brief trypsinization and re-plated at low density onto glass cover slips. Cells were typically used for electrophysiological experiments within 24 to 72 hours after plating.
Cover slips containing HEK cells expressing hSCN9A were placed in a bath on the stage of an inverted microscope and perfused (approximately 1 ml/minutes) with extracellular solution of the following composition: 138 mM NaCl, 2 mM CaCl2, 5.4 mM KCl, 1 mM MgCl2, 10 mM glucose, and 10 mM HEPES, pH 7.4, with NaOH. […] The osmolarity of the extracellular and intracellular solutions was 300 mOsm/kg and 295 mOsm/kg, respectively. All recordings were made at room temperature (22-24° C.) using AXOPATCH 200B amplifiers and PCLAMP software (Axon Instruments, Burlingame, Calif.).
hSCN9A currents in HEK cells were measured using the whole-cell configuration of the patch-clamp technique (Hamill et al., 1981). Uncompensated series resistance was typically 2 to 5 mega ohms and >85% series resistance compensation was routinely achieved. As a result, voltage errors were negligible and no correction was applied. Current records were acquired at 20 to 50 KHz and filtered at 5 to 10 KHz.
HEK cells stably transfected with hSCN9A were viewed under Hoffman contrast optics and placed in front of an array of flow pipes emitting either control or compound-containing extracellular solutions. All compounds were dissolved in dimethyl sulfoxide to make 10 mM stock solutions, which were then diluted into extracellular solution to attain the final concentrations desired. […] The voltage-dependence of inactivation was determined by applying a series of depolarizing prepulses (8 sec long in 10 mV increments) from a negative holding potential. The voltage was then immediately stepped to 0 mV to assess the magnitude of the sodium current. Currents elicited at 0 mV were plotted as a function of prepulse potential to allow estimation of the voltage at which 50% of the channels were inactivated (midpoint of inactivation or V1/2). Compounds were tested for their ability to inhibit hSCN9A sodium channels by activating the channel with a 20 msec voltage step to 0 mV following an 8 second conditioning prepulse to the empirically determined V1/2. Compound effect (% inhibition) was determined by difference in current amplitude before and after application of test compounds. For ease of comparison, “estimated IC-50” (EIC50) values were calculated from single point electrophysiology data by the following equation, (tested concentration, uM)×(100−% inhibition/% inhibition). Inhibition values <20% and >80% were excluded from the calculation.
Electrophysiological assays were conducted with PatchXpress 7000 hardware and associated software (Molecular Devices Corp). All assay buffers and solutions were identical to those used in conventional whole-cell voltage clamp experiments described above. hSCN9A cells were grown as above to 50%-80% confluency and harvested by trypsinization. […]
For the compound `CN1CC(n2nccc2-c2cc(C(F)(F)F)ccc2Oc2cc(F)c(S(=O)(=O)Nc3nncs3)cc2Cl)C1` [Example 14, 5-Chloro-2-fluoro-4-{4-trifluoromethyl-2-[1-(1-methylazetidin-3-yl)-1H-pyrazol-5-yl]phenoxy}-N-1,3,4-thiadiazol-ylbenzenesulfonamide], the pIC50 was 8.59.
In the case of `O=S(=O)(Nc1nncs1)c1cc(Cl)c(Oc2ccc(C(F)(F)F)cc2-c2ccnn2C2CNC2)cc1F` [Example 13] it was 8.96.
To `Nc1cc(-c2cc(C(F)(F)F)ccc2Oc2cc(F)c(S(=O)(=O)Nc3ncc(F)cn3)cc2Cl)ccn1` [Example 6, 4-[2-(2-Aminopyridin-4-yl)-4-(trifluoromethyl)phenoxy]-5-chloro-2-fluoro-N-(5-fluoropyrimidin-2-yl)benzenesulfonamide 4-methylbenzenesulfonate] belongs 8.07; to `Nc1cc(-c2cc(Cl)ccc2Oc2cc(F)c(S(=O)(=O)Nc3cscn3)cc2Cl)ccn1` [Example 10, 4-[2-(2-Aminopyridin-4-yl)-4-chlorophenoxy]-5-chloro-2-fluoro-N-1,3-thiazol-4-ylbenzenesulfonamide trifluoroacetate], 7.97.
In the case of `Nc1[nH]ncc1-c1cc(F)ccc1Oc1cc(F)c(S(=O)(=O)Nc2cscn2)cc1Cl` [Example 11, 4-[2-(5-Amino-1H-pyrazol-4-yl)-4-fluorophenoxy]-5-chloro-2-fluoro-N-1,3-thiazol-4-ylbenzenesulfonamide trifluoroacetate] it was 7.78.
With `Nc1n[nH]cc1-c1cc(OC(F)(F)F)ccc1Oc1cc(F)c(S(=O)(=O)Nc2cscn2)cc1Cl` [Example 8, 4-[2-(3-Amino-1H-pyrazol-4-yl)-4-(trifluoromethoxy)phenoxy]-5-chloro-2-fluoro-N-1,3-thiazol-4-ylbenzenesulfonamide dihydrochloride], the pIC50 was 8.00.
In the case of `O=S(=O)(Nc1nncs1)c1cc(Cl)c(Oc2ccc(Cl)cc2-c2ccnc(N3CCNCC3)n2)cc1F` [Example 2, 5-Chloro-4-[4-chloro-2-(2-piperazin-1-ylpyrimidin-4-yl)phenoxy]-2-fluoro-N-1,3,4-thiadiazol-2-ylbenzenesulfonamide trifluoroacetate] it was 8.30; in that of `Cc1cc(S(=O)(=O)Nc2ncns2)ccc1Oc1ccc(C(F)(F)F)cc1-c1ccnnc1` [Example 16, 3-Methyl-4-[2-pyridazin-4-yl-4-(trifluoromethyl)phenoxy]-N-1,2,4-thiadiazol-5-ylbenzenesulfonamide], 8.49; in that of `Nc1cc(-c2cc(F)ccc2Oc2cc(F)c(S(=O)(=O)Nc3cscn3)cc2Cl)ccn1` [Example 7, 4-[2-(2-Aminopyridin-4-yl)-4-fluorophenoxy]-5-chloro-2-fluoro-N-1,3-thiazol-4-ylbenzenesulfonamide trifluoroacetate], 7.83.
As for `Nc1cc(-c2cc(Cl)ccc2Oc2cc(F)c(S(=O)(=O)Nc3ncc(F)cn3)cc2Cl)ccn1` [Example 5, 4-[2-(2-Aminopyridin-4-yl)-4-chlorophenoxy]-5-chloro-2-fluoro-N-(5-fluoropyrimidin-2-yl)benzenesulfonamide dihydrochloride], the pIC50 was 7.93.
With `O=S(=O)(Nc1cscn1)c1cc(Cl)c(Oc2ccc(OC(F)(F)F)cc2-c2ccnnc2)cc1F` [Example 12, 5-Chloro-2-fluoro-4-[2-pyridazin-4-yl-4-(trifluoromethoxy)phenoxy]-N-1,3-thiazol-4-ylbenzenesulfonamide trifluoroacetate], the pIC50 is 7.84.
In the case of `O=S(=O)(Nc1cscn1)c1cc(Cl)c(Oc2cc(C(F)(F)F)c(F)cc2-c2ccnnc2)cc1F` [Example 4, 5-Chloro-2-fluoro-4-[4-fluoro-2-pyridazin-4-yl-5-(trifluoromethyl)phenoxy]-N-1,3-thiazol-4-ylbenzenesulfonamide bis(trifluoroacetate)] it was 7.56; in that of `Cc1nnccc1-c1cc(C(F)(F)F)ccc1Oc1ccc(S(=O)(=O)Nc2ncns2)cc1C#N` [Example 15, 3-Cyano-4-[2-(3-methylpyridazin-4-yl)-4-(trifluoromethyl)phenoxy]-N-1,2,4-thiadiazol-5-ylbenzenesulfonamide], 7.94; in that of `O=S(=O)(Nc1cscn1)c1cc(Cl)c(Oc2ccc(Cl)cc2-c2ccnc(N3CCNCC3)n2)cc1F` [Example 1, 5-Chloro-4-[4-chloro-2-(2-piperazin-1-ylpyrimidin-4-yl)phenoxy]-2-fluoro-N-1,3-thiazol-4-ylbenzenesulfonamide trifluoroacetate], 8.17.
In the case of `O=S(=O)(Nc1cscn1)c1cc(Cl)c(Oc2cc(F)c(C(F)(F)F)cc2-c2ccnnc2)cc1F` [Example 3, 5-Chloro-2-fluoro-4-[5-fluoro-2-pyridazin-4-yl-4-(trifluoromethyl)phenoxy]-N-1,3-thiazol-4-ylbenzenesulfonamide] it was 7.74; in that of `Nc1cc(-c2cc(Cl)ccc2Oc2ccc(S(=O)(=O)Nc3nncs3)cc2Cl)ccn1` [Example 9, 4-[2-(2-Aminopyridin-4-yl)-4-chlorophenoxy]-3-chloro-N-1,3,4-thiadiazol-2-ylbenzenesulfonamide trifluoroacetate], 7.62; in that of `O=S(=O)(Nc1cscn1)c1cc(F)c(Oc2ccc(Cl)cc2-c2ccnc(N3CCNCC3)n2)cc1F` [Example 17, 4-[4-chloro-2-(2-piperazin-1-ylpyrimidin-4-yl)phenoxy]2,5-difluoro-N-1,3-thiazol-4-ylbenzenesulfonamide trifluoroacetate], 8.00.

Source of the values: patent publication US9145407B2, “Sulfonamide compounds” (Pfizer Limited, priority 2010, dated 2015).
